{
  "source": "patent US20040255959A1",
  "about": "“Method and compounds to decrease the incidence of atrial fibrillation (AF) in patients with left ventricular dysfunction” (priority 2003, published 2004)",
  "key": {"[1]": {"system": "atrial refractory period during rapid atrial pacing", "settings": "in vivo; cited from earlier work"}, "[2]": {"system": "patients with left ventricular dysfunction", "assay": "Retrospective analysis of Montreal Heart Institute patients randomized in SOLVD: development of atrial fibrillation, enalapril versus placebo", "format": "in vivo, human", "text": "The patients of the Montreal Heart Institute who were enrolled in the SOLVD trials constituted the study population. SOLVD was a multicenter, double-blinded, randomized, placebo-controlled trial which evaluated the effect of the ACEi enalapril on survival in patients with left ventricular (LV) dysfunction (ejection fraction≦35%).^12,13 The design of the study has been reported previously.^13 Briefly, from June 1986 to August 1991, 4228 patients with asymptomatic or mildly symptomatic (not requiring treatment with digitalis, diuretics or vasodilators for heart failure at study entry) LV dysfunction (LVEF≦0.35) were included in the prevention trial and 2569 patients with overt congestive HF in the treatment trial.^14 Patients were randomized to enalapril (5-20 mg/day) or placebo. Exclusion criteria included: age>80 years, unstable angina, myocardial infarction in the previous month, severe pulmonary disease, renal insufficiency (creatinine level>[…]), current ACEi use or intolerance to ACEi. Follow-up visits were scheduled 2 and 6 weeks after randomization and every 4 months until the end of the study, for a mean follow-up of 3.4 and 3.1 years for the treatment and prevention trials, respectively.\nBaseline characteristics, past medical history and drug therapy at the time of enrolment were obtained from the SOLVD databases. Serial electrocardiograms (ECG) were not collected specifically for the SOLVD trials. However, the routine clinical follow-up of patients at our institution usually included a 12-lead ECG. Thus, the medical file of each patient was carefully reviewed and a single experienced cardiologist, blinded to treatment allocation, interpreted every ECG.\nAF was defined as rapid oscillations or fibrillatory waves that vary in size, shape and timing, associated with an irregular, frequently rapid ventricular response. For the purposes of the study, paroxysmal AF was defined as episodes in which the patient reverted to sinus rhythm spontaneously, with medical therapy orwith a single cardioversion, whereas patients who remained in AF despite changes in medical therapy and/or cardioversion were defined as persistent AF. Episodes occurring during a 24-hour Holter monitoring were also considered. The end-points were the development and time to first occurrence of AF on either one 12-lead ECG and/or a 24-hour Holter monitoring recorded during any available follow-up visits (including research, outpatient clinic or emergency room visits). Participants with significant supraventricular arrhythmia on the baseline ECG (AF or flutter) were excluded. Patients with a history of arrhythmia (either supraventricular or ventricular) but who were in sinus rhythm on the ECG at the time of randomization were included.\nThe baseline characteristics of the two groups were compared using student t-test for continuous variables and chi-square test for categorical variables. The incidence of AF between the two groups was compared with the chi-square test. Time to the first occurrence of AF during the follow-up was analyzed with Kaplan-Meier curves and compared with the log-rank test. To analyze the effect of enalapril on development of AF, a Cox regression analysis was used to take into account the effect of potential confounding baseline variables (age, sex, NYHA class, history of supraventricular or ventricular arrhythmia, ischemic etiology, diabetes and ejection fraction) and time-dependent variables (systolic blood pressure, diastolic blood pressure, pulse pressure, serum potassium and drug therapy). Cox proportional-hazard models were performed for each variable with treatment (enalapril) forced in all models. Variables with a p-value≦0.2 were included in a multivariate Cox proportional hazard model.\nSubgroup analysis was conducted with chi-square test. Preliminary assumptions were verified prior to all analysis. A p-value≦0.05 was considered statistically significant. […]"}, "[3]": {"system": "animals with HF induced by rapid ventricular pacing", "settings": "given at the onset of pacing, animals followed for 5 weeks; cited from earlier work"}, "[4]": {"system": "patients shortly after an acute myocardial infarction with depressed LV function", "settings": "trandolapril versus placebo, 2-4 years of follow-up in TRACE; cited from earlier work"}, "[5]": {"system": "patients with persistent AF", "settings": "started 3 weeks before electrical cardioversion and combined with amiodarone; cited from earlier work"}, "[6]": {"settings": "patients with AF in enalapril group, n = 10"}},
  "data": [
    {"smiles": "CCOc1nc2cccc(C(=O)O)c2n1Cc1ccc(-c2ccccc2-c2nnn[nH]2)cc1", "note": "[candesartan]", "values": [
      {"measurement": "shortening of the atrial refractory period during rapid atrial pacing", "setting": "[1]", "result": "prevented"}
    ]},
    {"smiles": "CCOC(=O)[C@H](CCc1ccccc1)N[C@@H](C)C(=O)N1CCC[C@H]1C(=O)O", "note": "[enalapril]", "values": [
      {"measurement": "patients presenting ≥1 episode of AF", "setting": "[2]; 2.9 years of follow-up, enalapril group n = 186, 5-20 mg/day, placebo 45", "result": 10, "unit": "patients"},
      {"measurement": "patients presenting ≥1 episode of AF (percentage)", "setting": "[2]; 2.9 years of follow-up, enalapril group n = 186, placebo 24%, p<0.001", "result": 5.4, "unit": "%"},
      {"measurement": "probability of remaining in sinus rhythm during follow-up", "setting": "[2]; Kaplan-Meier, enalapril versus placebo, p<0.0001, FIG. 1", "result": "significantly higher"},
      {"measurement": "Hazard ratio for incidence of AF, Cox multivariate analysis", "setting": "[2]; allocation to enalapril, 95% CI 0.11-0.44, p<0.0001", "result": 0.22},
      {"measurement": "risk of developing AF in patients with LV dysfunction", "setting": "[2]; chronic ACEi therapy with enalapril", "result": "markedly reduces"},
      {"measurement": "absolute risk reduction of AF", "setting": "[2]; enalapril versus placebo, 2.9 years of follow-up", "result": 18.6, "unit": "%"},
      {"measurement": "patients developing AF (percentage), patients with a history of supraventricular arrhythmia excluded", "setting": "[2]; n=21 excluded, placebo 23%, p<0.0001", "result": 4.5, "unit": "%"},
      {"measurement": "patients developing AF, patients with a history of supraventricular arrhythmia excluded", "setting": "[2]; n=21 excluded, placebo 40 patients", "result": 8, "unit": "patients"},
      {"measurement": "AF Detection: 12-leads ECG (number)", "setting": "[2]; [6]", "result": 10},
      {"measurement": "AF Detection: 12-leads ECG (percentage)", "setting": "[2]; [6]", "result": 100, "unit": "%"},
      {"measurement": "AF Detection: Holter monitoring (number)", "setting": "[2]; [6]", "result": "0 (0%)"},
      {"measurement": "AF Detection: Holter monitoring (percentage)", "setting": "[2]; [6]", "result": "0 (0%)"},
      {"measurement": "AF Requiring: electrical cardioversion (number)", "setting": "[2]; [6]", "result": 1},
      {"measurement": "AF Requiring: electrical cardioversion (percentage)", "setting": "[2]; [6]", "result": 10, "unit": "%"},
      {"measurement": "AF Requiring: hospitalization (number)", "setting": "[2]; [6]", "result": 8},
      {"measurement": "AF Requiring: hospitalization (percentage)", "setting": "[2]; [6]", "result": 80, "unit": "%"},
      {"measurement": "Paroxysmal AF (number)", "setting": "[2]; [6]", "result": 8},
      {"measurement": "Paroxysmal AF (percentage)", "setting": "[2]; [6]", "result": 80, "unit": "%"},
      {"measurement": "Persistent AF (number)", "setting": "[2]; [6]", "result": 2},
      {"measurement": "Persistent AF (percentage)", "setting": "[2]; [6]", "result": 20, "unit": "%"},
      {"measurement": "patients developing AF, SOLVD prevention arm", "setting": "[2]; prevention arm (251 patients), placebo 31 patients", "result": 4, "unit": "patients"},
      {"measurement": "patients developing AF (percentage), SOLVD prevention arm", "setting": "[2]; prevention arm, placebo 24.6%, p<0.0001", "result": 3.2, "unit": "%"},
      {"measurement": "patients with CHF needed to be treated to prevent one episode of AF", "setting": "[2]; treated for 2.9 years", "result": 5, "unit": "patients"},
      {"measurement": "patients developing AF, SOLVD treatment arm", "setting": "[2]; treatment arm (123 patients), placebo 14", "result": 6, "unit": "patients"},
      {"measurement": "patients developing AF (percentage), SOLVD treatment arm", "setting": "[2]; treatment arm, placebo 22.6%, P=0.055", "result": 9.8, "unit": "%"},
      {"measurement": "atrial fibrosis", "setting": "[3]", "result": "significant reduction"},
      {"measurement": "atrial structural changes in HF induced by rapid ventricular pacing", "setting": "[3]", "result": "attenuated"},
      {"measurement": "vulnerability of the animals to AF", "setting": "[3]", "result": "decreased vulnerability"}
    ]},
    {"smiles": "CCOC(=O)[C@H](CCc1ccccc1)N[C@@H](C)C(=O)N1[C@H](C(=O)O)C[C@H]2CCCC[C@@H]21", "note": "[trandolapril]", "values": [
      {"measurement": "absolute risk reduction on the incidence of AF", "setting": "[4]", "result": 2.5, "unit": "%"}
    ]},
    {"smiles": "C[C@H](CS)C(=O)N1CCC[C@H]1C(=O)O", "note": "[captopril]", "values": [
      {"measurement": "shortening of the atrial refractory period during rapid atrial pacing", "setting": "[1]", "result": "prevented"}
    ]},
    {"smiles": "CCCCC1=NC2(CCCC2)C(=O)N1Cc1ccc(-c2ccccc2-c2nnn[nH]2)cc1", "note": "[irbesartan]", "values": [
      {"measurement": "effect on AF recurrence", "setting": "[5]", "result": "beneficial effect"}
    ]}
  ]
}
